DBAASP
Converted amounts (≈) assume the structure as drawn. Values belong to the compound of their own block, whether it stands above or below them.

Assays:
Assay in all cases: ≥ marks a high value that may be exact or a test limit, other limits are often not marked, values filed in µg/mL are converted to µM
[1] = test system: Escherichia coli ATCC 25322
[2] = test system: Staphylococcus aureus ATCC 25923
[3] = test system: Bacillus subtilis CGMCC 1.3376
[4] = test system: Escherichia coli CGMCC 1.8732
[5] = test system: Klebsiella pneumoniae CGMCC 1.1736
[6] = test system: Pseudomonas aeruginosa CGMCC 1.2421
[7] = test system: Staphylococcus aureus CGMCC 1.8721
[8] = test system: Staphylococcus epidermidis CGMCC 1.4260
[9] = test system: Acinetobacter baumannii ATCC 19606
[10] = test system: Enterococcus faecalis ATCC 7080
[11] = test system: Escherichia coli ATCC 11775
[12] = test system: Pseudomonas aeruginosa ATCC 25668
[13] = test system: Staphylococcus aureus ATCC 29213
[14] = test system: Staphylococcus aureus ATCC 33591
[15] = test system: Staphylococcus aureus ATCC BAA-44
[16] = test system: Staphylococcus epidermidis ATCC 12228
[17] = test system: Staphylococcus epidermidis ATCC 51625
[18] = test system: Streptococcus gordonii ATCC 10558
[19] = test system: Streptococcus mutans GS-5
[20] = test system: Streptococcus mutans UA159
[21] = test system: Streptococcus sanguinis ATCC 49295
[22] = test system: Candida albicans ATCC 64550
[23] = test system: Escherichia coli BL21
[24] = test system: Pseudomonas aeruginosa PAO1
[25] = test system: Pseudomonas syringae
[26] = test system: Streptococcus pyogenes GAS M1T1
[27] = test system: Xanthomonas axonopodis pv. phaseoli ATCC 9563
[28] = test system: Aeromonas hydrophila
[29] = test system: Escherichia coli
[30] = test system: Staphylococcus aureus
[31] = test system: Streptococcus pyogenes
[32] = test system: Vibrio alginolyticus
[33] = test system: Vibrio fluvialis
[34] = test system: Vibrio parahaemolyticus
[35] = test system: Bacillus subtilis ATCC 6633
[36] = test system: Escherichia coli K-12
[37] = test system: Micrococcus luteus NCIMB 13267
[38] = test system: Pseudomonas aeruginosa ATCC 27853
[39] = test system: Staphylococcus aureus ATCC 6538

SMILES: CC(C)C[C@H](NC(=O)CNC(=O)[C@H](CC(N)=O)NC(=O)[C@@H](NC(=O)[C@@H](NC(=O)CNC(=O)[C@H](CC(C)C)NC(=O)[C@H](C)NC(=O)[C@H](CCCCN)NC(=O)[C@H](CC(N)=O)NC(=O)[C@H](CC(C)C)NC(=O)[C@H](CC(C)C)NC(=O)[C@@H](N)CC(N)=O)[C@@H](C)O)C(C)C)C(=O)N[C@@H](CC(C)C)C(=O)NCC(=O)N[C@@H](CCCN=C(N)N)C(=O)N[C@@H](CO)C(=O)O [NLLNKALGTVNGLLGRS]
MIC [1]: ≥ 64 µM | MIC [2]: 32 µM (≈ 55.7 µg/mL)

SMILES: CC(C)C[C@H](NC(=O)[C@H](CCCN=C(N)N)NC(=O)[C@H](Cc1ccccc1)NC(=O)[C@H](Cc1ccccc1)NC(=O)[C@@H](NC(=O)[C@H](CO)NC(=O)[C@@H](N)CC(C)C)[C@@H](C)O)C(=O)N[C@@H](Cc1ccccc1)C(=O)N[C@@H](CC(N)=O)C(=O)N[C@@H](CCCN=C(N)N)C(=O)N[C@@H](CO)C(=O)N[C@@H](Cc1ccccc1)C(=O)N[C@H](C(=O)N[C@@H](CCC(N)=O)C(=O)NCC(=O)N[C@@H](CCCN=C(N)N)C(=O)N[C@@H](CCCN=C(N)N)C(=O)N[C@@H](CCCN=C(N)N)C(=O)N[C@@H](CCCN=C(N)N)C(=O)N[C@@H](CO)C(=O)N[C@H](C(=O)N[C@@H](CCC(N)=O)C(=O)N[C@@H](Cc1c[nH]c2ccccc12)C(=O)N[C@@H](CS)C(=O)N[C@@H](C)C(=O)O)C(C)C)[C@@H](C)O [LSTFFRLFNRSFTQGRRRRSVQWCA]
MIC [18]: 16 µM (≈ 49.8 µg/mL) | MIC [19]: 4.27 µM (≈ 13.3 µg/mL) | MIC [20]: 3.42 µM (≈ 10.7 µg/mL) | MIC [21]: 31.9 µM (≈ 99.6 µg/mL)

SMILES: CC(=O)N[C@@H](C)C(=O)N[C@@H](C)C(=O)N[C@@H](C)C(=O)N[C@@H](C)C(=O)N[C@@H](C)C(=O)N[C@@H](C)C(=O)N[C@@H](C)C(=O)N[C@@H](C)C(=O)N[C@@H](C)C(=O)N[C@@H](CCCCN)C(N)=O [AAAAAAAAAK]
MIC [22]: ≥ 100 µM

SMILES: CC[C@H](C)[C@H](NC(=O)[C@H](CCCCN)NC(=O)[C@H](Cc1cnc[nH]1)NC(=O)[C@H](CC(C)C)NC(=O)[C@H](CC(C)C)NC(=O)[C@H](Cc1ccccc1)NC(=O)[C@H](CC(N)=O)NC(=O)[C@@H](N)C(C)C)C(=O)N[C@@H](Cc1ccc(O)cc1)C(=O)NCC(=O)N[C@@H](CC(N)=O)C(=O)N[C@H](C(=O)N[C@@H](CCCN=C(N)N)C(=O)N[C@@H](CC(=O)O)C(=O)N[C@@H](CO)C(=O)O)[C@@H](C)CC [VNFLLHKIYGNIRDS]
MIC [28]: 2.18 µM (≈ 3.9 µg/mL) | MIC [29]: 2.18 µM (≈ 3.9 µg/mL) | MIC [30]: 34.9 µM (≈ 62.5 µg/mL) | MIC [31]: ≥ 34.9 µM | MIC [32]: 2.18 µM (≈ 3.9 µg/mL) | MIC [33]: ≥ 34.9 µM | MIC [34]: 18 µM (≈ 32.2 µg/mL)

SMILES: CC(C)C[C@H](NC(=O)[C@H](CCCCN)NC(=O)[C@H](C)NC(=O)[C@H](CC(C)C)NC(=O)[C@H](CCCCN)NC(=O)[C@H](CCC(N)=O)NC(=O)[C@H](CCCCN)NC(=O)[C@H](CC(C)C)NC(=O)[C@H](CCCCN)NC(=O)[C@H](CCC(N)=O)NC(=O)[C@H](CC(C)C)NC(=O)[C@H](CCCCN)NC(=O)[C@H](C)NC(=O)[C@H](CCCCN)NC(=O)[C@H](CC(C)C)NC(=O)[C@H](CCCCN)NC(=O)[C@H](C)NC(=O)[C@H](CC(C)C)NC(=O)[C@H](CCCCN)NC(=O)[C@H](CCC(N)=O)NC(=O)[C@@H](N)CCCCN)C(=O)O [KQKLAKLKAKLQKLKQKLAKL]
MIC [35]: 6 µM (≈ 14.7 µg/mL) | MIC [36]: 3 µM (≈ 7.34 µg/mL) | MIC [37]: 12 µM (≈ 29.4 µg/mL) | MIC [38]: 12 µM (≈ 29.4 µg/mL) | MIC [39]: > 50 µM

Continued, values first:

MIC [3]: 12.5 µM (≈ 31.2 µg/mL) | MIC [4]: 25 µM (≈ 62.3 µg/mL) | MIC [5]: 25 µM (≈ 62.3 µg/mL) | MIC [6]: 25 µM (≈ 62.3 µg/mL) | MIC [7]: ≥ 100 µM | MIC [8]: 6.25 µM (≈ 15.6 µg/mL)
SMILES: CC[C@H](C)[C@H](NC(=O)[C@H](C)N)C(=O)NCC(=O)N[C@@H](CO)C(=O)N[C@H](C(=O)N[C@@H](CC(C)C)C(=O)NCC(=O)N[C@@H](CCCN=C(N)N)C(=O)N[C@@H](CC(C)C)C(=O)N[C@@H](C)C(=O)N[C@@H](CCCCN)C(=O)NCC(=O)N[C@@H](CC(C)C)C(=O)N1CCC[C@H]1C(=O)N[C@H](C(=O)N[C@@H](CC(C)C)C(=O)N[C@@H](CCCCN)C(=O)N[C@@H](CO)C(=O)N[C@@H](Cc1c[nH]c2ccccc12)C(=O)N[C@H](C(=O)N[C@@H](CCCCN)C(=O)N[C@@H](CC(N)=O)C(=O)N[C@@H](CCCN=C(N)N)C(N)=O)[C@@H](C)CC)[C@@H](C)O)[C@@H](C)CC [AIGSILGRLAKGLPTLKSWIKNR]

MIC [9]: 4.75 µM (≈ 8 µg/mL) | MIC [10]: 9.49 µM (≈ 16 µg/mL) | MIC [11]: 1.19 µM (≈ 2 µg/mL) | MIC [12]: 1.19 µM (≈ 2 µg/mL) | MIC [13]: 1.19 µM (≈ 2 µg/mL) | MIC [14]: 1.19 µM (≈ 2 µg/mL) | MIC [15]: 2.37 µM (≈ 4 µg/mL) | MIC [16]: 1.19 µM (≈ 2 µg/mL) | MIC [17]: 1.19 µM (≈ 2 µg/mL)
SMILES: CC(C)C[C@H](NC(=O)[C@H](Cc1c[nH]c2ccccc12)NC(=O)[C@H](CCCCN)NC(=O)[C@H](CC(C)C)NC(=O)[C@H](Cc1c[nH]c2ccccc12)NC(=O)[C@H](CCCCN)NC(=O)[C@H](CCCCN)NC(=O)[C@H](CC(C)C)NC(=O)[C@H](Cc1c[nH]c2ccccc12)NC(=O)[C@@H](N)CCCCN)C(=O)N[C@@H](CCCCN)C(=O)N[C@@H](CCCCN)C(N)=O [KWLKKWLKWLKK]

MIC [23]: 8 µM (≈ 24.5 µg/mL) | MIC [24]: 10 µM (≈ 30.6 µg/mL) | MIC [25]: 8 µM (≈ 24.5 µg/mL) | MIC [26]: 8 µM (≈ 24.5 µg/mL) | MIC [27]: 1 µM (≈ 3.06 µg/mL)
SMILES: CC[C@H](C)[C@H](NC(=O)[C@H](CCCCN)NC(=O)[C@H](CC(N)=O)NC(=O)[C@H](CCCCN)NC(=O)[C@H](CC(C)C)NC(=O)[C@H](Cc1ccc(O)cc1)NC(=O)[C@H](CCC(N)=O)NC(=O)[C@H](CCCN=C(N)N)NC(=O)[C@@H](NC(=O)[C@@H](NC(=O)[C@H](CCCCN)NC(=O)[C@H](CCCCN)NC(=O)CNC(=O)[C@H](C)N)[C@@H](C)O)[C@@H](C)CC)C(=O)N[C@@H](CCCCN)C(=O)N[C@@H](CCCCN)C(=O)N[C@@H](CCCCN)C(=O)N[C@@H](Cc1c[nH]c2ccccc12)C(=O)N[C@@H](CCCN=C(N)N)C(=O)N[C@@H](CCCCN)C(=O)N[C@@H](C)C(=O)N[C@H](C(=O)N[C@H](C(=O)N[C@@H](C)C(=O)N[C@@H](Cc1c[nH]c2ccccc12)C(=O)O)[C@@H](C)CC)C(C)C [AGKKTIRQYLKNKIKKKWRKAVIAW]
